Measurements as given in patent US20150274657A1, “PYRROLIDINES” (MERCK PATENT GMBH, priority 2012, published 2015).
Like-named read-outs stand apart in the source and are kept apart here.

Columns and labels:
[1] = molecular target: T1, human Nav1.6 ion channels (Homo sapiens, UniProt Q9UQD0); experiment: IonWorks electrophysiological assay on CHO cells expressing human Nav1.6; assay type: cell-based; details: CHO human Nav1.6 expressing cells
T1 construct: host or cells: CHO
Protocol: IonWorks electrophysiological assays were conducted to profile compounds for activity on CHO human Nav1.6 ion channels expressing cells (Milipore) using a unique protocol to assess the close (tonic, Pulse 1) and inactivated state inhibition (Pulse 2). The membrane potential is initially held at a hyperpolarized potential (−120 mV) to drive sodium channels into the resting closed state. The membrane is then reset to 0 mV voltage (for 2.5 seconds) following a brief 5 ms hyperpolarization to partially remove inactivation of non-blocked sodium channels; a short 20 ms test voltage step is applied to assess the magnitude of inhibition.

[2] = secondary progressive MS patients; over 2 years; p=0.02; cited from earlier work
[3] = closed (tonic) state inhibition (Pulse 1), read-out: Nav1.6 Tonic
[4] = inactivated state inhibition (Pulse 2), read-out: Nav1.6 Inactivated

T1 sequence (Q9UQD0 whole entry): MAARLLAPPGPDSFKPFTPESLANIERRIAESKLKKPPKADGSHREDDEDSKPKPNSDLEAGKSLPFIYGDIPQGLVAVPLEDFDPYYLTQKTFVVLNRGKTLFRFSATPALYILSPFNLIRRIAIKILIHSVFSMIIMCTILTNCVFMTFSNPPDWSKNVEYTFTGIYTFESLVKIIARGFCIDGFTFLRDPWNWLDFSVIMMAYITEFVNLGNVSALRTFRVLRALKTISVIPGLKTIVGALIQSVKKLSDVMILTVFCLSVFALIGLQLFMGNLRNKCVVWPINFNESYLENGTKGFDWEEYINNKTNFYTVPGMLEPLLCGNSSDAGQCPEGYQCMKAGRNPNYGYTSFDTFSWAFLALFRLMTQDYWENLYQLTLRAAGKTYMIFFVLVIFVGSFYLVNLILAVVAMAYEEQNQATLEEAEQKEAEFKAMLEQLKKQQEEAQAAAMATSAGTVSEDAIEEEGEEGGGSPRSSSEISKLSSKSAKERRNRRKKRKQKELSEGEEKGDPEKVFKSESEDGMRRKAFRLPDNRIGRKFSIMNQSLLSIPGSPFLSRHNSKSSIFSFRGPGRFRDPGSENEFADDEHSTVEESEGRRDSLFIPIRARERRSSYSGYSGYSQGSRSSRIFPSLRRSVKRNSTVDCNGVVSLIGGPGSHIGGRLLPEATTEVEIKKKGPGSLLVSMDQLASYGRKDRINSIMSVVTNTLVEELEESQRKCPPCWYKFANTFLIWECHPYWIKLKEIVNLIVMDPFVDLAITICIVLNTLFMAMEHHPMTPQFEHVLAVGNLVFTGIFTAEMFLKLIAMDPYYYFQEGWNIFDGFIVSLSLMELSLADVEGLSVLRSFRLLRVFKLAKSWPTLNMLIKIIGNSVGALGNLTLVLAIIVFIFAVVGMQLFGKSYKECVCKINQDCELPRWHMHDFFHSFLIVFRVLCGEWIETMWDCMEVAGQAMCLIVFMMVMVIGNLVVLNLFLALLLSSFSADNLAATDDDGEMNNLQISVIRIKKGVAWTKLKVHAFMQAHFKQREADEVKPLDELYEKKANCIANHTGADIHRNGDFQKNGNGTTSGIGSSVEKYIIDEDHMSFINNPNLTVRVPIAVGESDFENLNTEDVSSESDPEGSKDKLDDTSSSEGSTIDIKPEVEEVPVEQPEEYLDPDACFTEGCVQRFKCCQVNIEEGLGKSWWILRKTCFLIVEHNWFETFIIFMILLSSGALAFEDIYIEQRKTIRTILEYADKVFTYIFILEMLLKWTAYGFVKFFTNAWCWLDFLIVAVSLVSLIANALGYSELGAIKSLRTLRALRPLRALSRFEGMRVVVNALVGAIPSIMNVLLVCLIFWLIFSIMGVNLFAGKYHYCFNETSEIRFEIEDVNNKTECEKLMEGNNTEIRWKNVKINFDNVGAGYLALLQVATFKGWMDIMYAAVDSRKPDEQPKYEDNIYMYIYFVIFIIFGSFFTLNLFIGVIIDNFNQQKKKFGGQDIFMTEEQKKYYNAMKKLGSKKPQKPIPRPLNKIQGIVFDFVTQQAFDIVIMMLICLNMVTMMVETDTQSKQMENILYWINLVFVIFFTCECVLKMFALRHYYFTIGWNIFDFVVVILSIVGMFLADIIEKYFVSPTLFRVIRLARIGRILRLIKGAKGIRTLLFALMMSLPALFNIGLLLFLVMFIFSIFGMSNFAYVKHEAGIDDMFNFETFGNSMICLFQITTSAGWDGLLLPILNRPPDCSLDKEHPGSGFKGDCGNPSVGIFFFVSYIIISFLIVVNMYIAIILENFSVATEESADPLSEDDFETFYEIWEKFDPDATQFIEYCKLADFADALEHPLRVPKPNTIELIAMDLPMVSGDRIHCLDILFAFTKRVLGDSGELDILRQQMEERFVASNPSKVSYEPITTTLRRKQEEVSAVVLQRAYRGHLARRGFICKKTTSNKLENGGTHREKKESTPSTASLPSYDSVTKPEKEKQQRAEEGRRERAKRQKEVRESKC

CCCNC(=O)C1(C)CCN(Cc2ccc(-c3ccccc3)o2)C1 (stereo not shown) [Example 5]
IC50 [1, 3]: 30700 nM | IC50 [1, 4]: 785 nM

COC1CCN(C(=O)C2CCN(Cc3cccc(Oc4ccccc4)c3)C2)CC1 (racemic) [Example 30, (±) (4-methoxy-piperidin-1-yl)-[1-(3-phenoxy-benzyl)-pyrrolidin-3-yl]-methanone]
IC50 [1, 3]: > 33000 nM | IC50 [1, 4]: 1090 nM

O=C(NCCc1ccccn1)C1CCN(Cc2cccc(Oc3ccccc3)c2)C1 (racemic) [Example 28, (±) 1-(3-phenoxy-benzyl)-pyrrolidine-3-carboxylic acid (2-pyridin-2-yl-ethyl)-amide]
IC50 [1, 3]: 19600 nM | IC50 [1, 4]: 1170 nM

O=C(NCc1ccccn1)C1CCN(Cc2cccc(Oc3ccccc3)c2)C1 (racemic) [Example 34, (±) 1-(3-phenoxy-benzyl)-pyrrolidine-3-carboxylic acid (Pyridin-2-ylmethyl)-amide]
IC50 [1, 3]: 16200 nM | IC50 [1, 4]: 353 nM

CC1(C(=O)NCc2ccccn2)CCN(Cc2csc(-c3ccccc3)n2)C1 (racemic) [Example 21, (±) 3-methyl-1-(2-phenyl-thiazol-4-ylmethyl)-pyrrolidine-3-carboxylic acid (pyridin-2-ylmethyl)-amide]
IC50 [1, 3]: > 33000 nM | IC50 [1, 4]: 1080 nM

CC1CN(C(=O)C2CCN(Cc3cccc(Oc4ccccc4)c3)C2)CCO1 (racemic) [Example 27, (±) (2-methyl-morpholin-4-yl)-[1-(3-phenoxy-benzyl)-pyrrolidin-3-yl]-methanone]
IC50 [1, 3]: > 33000 nM | IC50 [1, 4]: 1440 nM

CN(Cc1ccccn1)C(=O)C1(C)CCN(Cc2cccc(Oc3ccccc3)c2)C1 (racemic) [Example 14, (±) 3-methyl-1-(3-phenoxy-benzyl)-pyrrolidine-3-carboxylic acid methyl-pyridin-2-ylmethyl-amide]
IC50 [1, 3]: 30300 nM | IC50 [1, 4]: 473 nM

COC1CCN(C(=O)C2CCN(Cc3cccc(Oc4ccccc4)c3)C2)C1 (racemic) [Example 33, (±) (3-methoxy-pyrrolidin-1-yl)-[1-(3-phenoxy-benzyl)-Pyrrolidin-3-yl]-methanone]
IC50 [1, 3]: > 33000 nM | IC50 [1, 4]: 1520 nM

CCNC(=O)C1(C)CCN(Cc2ccc(-c3ccccc3)cc2)C1 (stereo not shown) [Example 1]
IC50 [1, 3]: 21400 nM | IC50 [1, 4]: 1770 nM

COC(=O)C1(C)CCN(Cc2cccc(OCC(C)C)c2)C1 (racemic) [Example 22, (±) 1-(3-isobutoxy-benzyl)-3-methyl-pyrrolidine-3-carboxylic acid methyl ester]
IC50 [1, 3]: > 33000 nM | IC50 [1, 4]: 994 nM

CCCNC(=O)C1(C)CCN(Cc2csc(-c3ccc(Cl)cc3)n2)C1 (stereo not shown) [Example 8]
IC50 [1, 3]: 14800 nM | IC50 [1, 4]: 1030 nM

CC1(C(=O)N2CCc3cccnc3C2)CCN(Cc2cccc(Oc3ccccc3)c2)C1 (racemic) [Example 32, (±) (5,8-dihydro-6H-[1,7]naphthyridin-7-yl)-[3-methyl-1-(3-phenoxy-benzyl)-pyrrolidin-3-yl]-methanone]
IC50 [1, 3]: > 33000 nM | IC50 [1, 4]: 1670 nM

COC1CCCN(C(=O)C2CCN(Cc3cccc(Oc4ccccc4)c3)C2)C1 (racemic) [Example 29, (±) (3-methoxy-piperidin-1-yl)-[1-(3-phenoxy-benzyl)-pyrrolidin-3-yl]-methanone]
IC50 [1, 3]: > 33000 nM | IC50 [1, 4]: 1890 nM

CC1(C(=O)NCCc2ccccn2)CCN(Cc2cccc(Oc3ccccc3)c2)C1 (racemic) [Example 26, (±) 3-methyl-1-(3-phenoxy-benzyl)-pyrrolidine-3-carboxylic acid (2-pyridin-2-v1-ethyl)-amide]
IC50 [1, 3]: 10600 nM | IC50 [1, 4]: 771 nM

CN1CCN(C(=O)C2(C)CCN(Cc3cccc(Oc4ccccc4)c3)C2)CC1 (racemic) [Example 20, (±) [3-methyl-1-(3-phenoxy-benzyl)-pyrrolidin-3-yl]-(4-methyl-piperazin-1-yl)-methanone]
IC50 [1, 3]: 8940 nM | IC50 [1, 4]: 1910 nM

COCCNC(=O)C1(C)CCN(Cc2cccc(Oc3ccccc3)c2)C1 (stereo not shown) [Example 2]
IC50 [1, 3]: 15500 nM | IC50 [1, 4]: 993 nM

COCCNC(=O)C1CCN(Cc2cccc(Oc3ccccc3)c2)C1 (racemic) [Example 19, (±) 1-(3-phenoxy-benzyl)-pyrrolidine-3-carboxylic acid (2-methoxy-ethyl)-amide]
IC50 [1, 3]: 30300 nM | IC50 [1, 4]: 1180 nM

CC1(C(=O)NCc2ccncc2)CCN(Cc2cccc(Oc3ccccc3)c2)C1 (racemic) [Example 17, (±) 3-methyl-1-(3-phenoxy-benzyl)-pyrrolidine-3-carboxylic acid (pyridin-4-ylmethyl)-amide]
IC50 [1, 3]: 16400 nM | IC50 [1, 4]: 940 nM

CCNC(=O)[C@]1(C)CCN(Cc2cccc(Oc3ccccc3)c2)C1 (single isomer, unassigned) [Example 11]
IC50 [1, 3]: 15700 nM | IC50 [1, 4]: 825 nM

CCNC(=O)[C@@]1(C)CCN(Cc2cccc(Oc3ccccc3)c2)C1 (single isomer, unassigned) [Example 10]
IC50 [1, 3]: 20000 nM | IC50 [1, 4]: 808 nM

CCCNC(=O)C1(C)CCN(Cc2cccc(Oc3ccccc3)c2)C1 (stereo not shown) [Example 4]
IC50 [1, 3]: 9420 nM | IC50 [1, 4]: 1030 nM

Cc1ccccc1CNC(=O)C1(C)CCN(Cc2cccc(Oc3ccccc3)c2)C1 (racemic) [Example 9, (±) 3-methyl-1-(3-phenoxy-benzyl)-pyrrolidine-3-carboxylic acid 2-methyl-benzylamide]
IC50 [1, 3]: 14100 nM | IC50 [1, 4]: 615 nM

CC1(C(=O)NCc2ccccn2)CCN(Cc2cccc(Oc3ccccc3)c2)C1 (racemic) [Example 12, (±) 3-methyl-1-(3-phenoxy-benzyl)-pyrrolidine-3-carboxylic acid (pyridin-2-ylmethyl)-amide]
IC50 [1, 3]: > 33000 nM | IC50 [1, 4]: 228 nM

CC1(C(=O)N2CCOCC2)CCN(Cc2cccc(Oc3ccccc3)c2)C1 (racemic) [Example 15, (±) [3-methyl-1-(3-phenoxy-benzyl)-pyrrolidin-3-yl]-morpholin-4-yl-methanone]
IC50 [1, 3]: 15500 nM | IC50 [1, 4]: 733 nM

CCNC(=O)C1CCN(Cc2cccc(Oc3ccccc3)c2)C1 (racemic) [Example 18, (±) 1-(3-phenoxy-benzyl)-pyrrolidine-3-carboxylic acid ethylamide]
IC50 [1, 3]: 23100 nM | IC50 [1, 4]: 621 nM

CC(C)COc1cccc(CN2CCC(C)(C(=O)N(C)Cc3ccccn3)C2)c1 (racemic) [Example 25, (±) 1-(3-isobutoxy-benzyl)-3-methyl-pyrrolidine-3-carboxylic acid methyl-pyridin-2-ylmethyl-amide]
IC50 [1, 3]: 19900 nM | IC50 [1, 4]: 752 nM

O=C(NCc1cccnc1)[C@@H]1CCN(Cc2cccc(Oc3ccccc3)c2)C1 [Example 24, (R)-1(3-phenoxy-benzyl)-pyrrolidine-3-carboxylic acid (pyridin-3-ylmethyl)-amide]
IC50 [1, 3]: 29900 nM | IC50 [1, 4]: 1300 nM

CCCNC(=O)C1(C)CCN(Cc2cccc(OC(=O)c3ccccc3)c2)C1 (stereo not shown) [Example 7]
IC50 [1, 3]: > 33000 nM | IC50 [1, 4]: 1610 nM

CC1(C(=O)N2CCc3cccc(C(F)(F)F)c3C2)CCN(Cc2cccc(Oc3ccccc3)c2)C1 (racemic) [Example 13, (±) [3-methyl-1-(3-phenoxy-benzyl)-pyrrolidin-3-yl]-(8-trifluoromethyl-3,4-dihydro-1H-isoquinolin-2-yl)-methanone]
IC50 [1, 3]: > 33000 nM | IC50 [1, 4]: 1970 nM

CC(C)COc1cccc(CN2CCC(C)(C(=O)NCc3ccccn3)C2)c1 (racemic) [Example 23, (±) 1-(3-isobutoxy-benzyl)-3-methyl-pyrrolidine-3-carboxylic acid (pyridin-2-ylmethyl)-amide]
IC50 [1, 3]: > 33000 nM | IC50 [1, 4]: 445 nM

CCCNC(=O)C1(C)CCN(Cc2ccc(OC)c3ccccc23)C1 (stereo not shown) [Example 6]
IC50 [1, 3]: 23400 nM | IC50 [1, 4]: 1860 nM

CC1(C(=O)NCc2cccnc2)CCN(Cc2cccc(Oc3ccccc3)c2)C1 (racemic) [Example 16, (±) 3-methyl-1-(3-phenoxy-benzyl)-pyrrolidine-3-carboxylic acid (pyridin-3-ylmethyl)-amide]
IC50 [1, 3]: 13100 nM | IC50 [1, 4]: 409 nM

CC1(C(=O)N2Cc3cccnc3C2)CCN(Cc2cccc(Oc3ccccc3)c2)C1 (racemic) [Example 31, (±) (5,7-dihydro-pyrrolo[3,4-b]pyridin-6-yl)-[3-methyl-1-(3-phenoxy-benzyl)-pyrrolidin-3-yl]-methanone]
IC50 [1, 3]: > 33000 nM | IC50 [1, 4]: 1740 nM

Nc1nnc(-c2cccc(Cl)c2Cl)c(N)n1 [Lamotrigine]
deterioration of the timed 25-foot walk [2]: reduced the deterioration of the timed 25-foot walk
